Laboratory results: patent US5360803A, “Composition and method for treating cancer” (Dan Farber Cancer Institute, priority 1992, dated 1994)

Columns and labels:
[1] = system: CV-1 cells; assay: selective killing assay, colony number reduced to 50% of control, normal monkey kidney epithelial cell line CV-1; type: cell-based; conditions: Primates, 24 hours treatment
Excerpt: (§1) The control received culture media only.

[2] = system: CX-1 cells; assay: selective killing assay, colony number reduced to 50% of control, human colon carcinoma cell line CX-1; type: cell-based; conditions: for Selectivity (ratio of IC50 for CV-1 and IC50 for CX-1): CV-1/CX-1; for IC50: Homo sapiens, CX-1, Table III;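 for all read-outs here: colonies stained with crystal violet and counted, control cells given medium alone, exposure at 37 °C, normal monkey kidney epithelial CV-1 cells as the non-cancer comparator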
[3] = system: normal nude mice; assay: toxicity to normal nude mice
[4] = system: EJ cells; assay: colony assay of Example 1 with human bladder carcinoma EJ cell line; type: cell-based;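 note: colony formation assay with 24 h compound exposure at 37 °C, then 7–10 days drug-free regrowth, colonies stained with crystal violet, controls given medium alone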
[5] = system: LOX cells; assay: colony assay of Example 1 with human melanoma LOX cell line; type: cell-based;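 note: colony formation assay with 24 h exposure at 37 °C, then 7 to 10 days of regrowth, crystal violet staining of colonies, control wells given medium alone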
[6] = system: MCF-7 cells; assay: colony assay of Example 1 with human breast carcinoma MCF-7 cell line; type: cell-based
Excerpt: as §1

[7] = system: CRL 1420 cells; assay: colony assay of Example 1 with human pancreatic carcinoma CRL 1420 cell line; type: cell-based;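 note: colony formation assay, cells exposed for 24 h then regrown 7 to 10 days without compound, colonies stained with crystal violet, control given medium alone, normal reference CV-1 monkey kidney epithelial cells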
Description: Human colon carcinoma cell line CX-1 or normal monkey kidney epithelial cell line CV-1 was chosen as representatives of cancer cells and normal cells, respectively. […] CX-1 cells (2,000 cells/well) and CV-1 cells (1,000 cells/well) were plated in 24-well plastic culture plates. […] The control received culture media only. Cells were treated with compounds of General Formulas (I) to (V) at 37° C. for 24 hours. After rinsing with fresh culture medium three times, the cells were further incubated at 37° C. for 7 to 10 days. Cell colonies were fixed and stained with 2% crystal violet in 70% ethanol for 10 minutes and rinsed in water. […] The selectivity is defined as the ratio of IC50 for CV-1 and IC50 for CX-1.

[8] = system: human melanoma LOX; assay: survival of nude mice implanted with human melanoma LOX; type: in vivo, male athymic Swiss nu/nu mouse (human tumor); conditions: Mus musculus, ip, 24 h, 5 mg/kg i.p. on day 1, 4, 8, 11; read-out: T/C
[9] = system: human colon carcinoma CX-1; assay: anti-human colon carcinoma CX-1 activity using nude mice; type: in vivo, Swiss nu/nu mice (human tumor); conditions: Mus musculus, ip, 24 h, 5 mg/kg i.p. on day 1, 5, 8, 12, 15, 19; read-out: Tumor Inhibition
Excerpt: Human colon carcinoma cell line CX-1 has been chosen by the National Cancer Institute as a mode for cancer drug screening (NCI Protocol 3C2H2). It was established in culture from the surgical explant of the primary colon adenocarcinoma of a person with no previous chemotherapy. The cultured CX-1 cells, upon subcutaneous injection, can grow readily in nude mice as a moderately- to well-differentiated human colon carcinoma. CEA is expressed as expected for differentiated colon carcinoma cells. Abundant keratin, consistent with epithelial origin, is present. Increased uptake and prolonged retention of delocalized lipophilic cations are observed.
Swiss nu/nu mice obtained from Taconic Farm were housed in a pathogen-free environment. Tumors subcutaneously passaged in nude mice were excised under sterile conditions and converted to a single cell suspension using a metal grid with a 0.4 mm mesh. Red blood cells were lysed by incubation with 0.17M ammonium chloride at 4° C. for 20 minutes. Cells were scored for viability with trypan blue. Viable CX-1 cells (2.5 million) made up in 0.1 ml of […]. The mice were randomly allocated into a control group (five mice) and a treatment group (five mice per group). The drug treatment was commenced the next day. Doses and schedules were developed empirically and were based mainly on information on LD50 and LD1O obtained from preliminary toxicity studies. The control group received an equivalent volume of hydroxypropyl-β-cyclodextrin-5% glucose solution.
The pharmaceutical compositions tested comprised solutions in 5% glucose subjected to sonication at concentrations of 1 mg/ml. Those compounds which were not completely dissolved by this procedure were dissolved hydroxypropyl-β-cyclodextrin using the following method. Hydroxypropyl-β-cyclodextrin (45 g) was mixed with 100 ml of sterilized, double distilled water and stirred for four hours. Each of the compounds to be tested (20 mg) was mixed with 10 ml of hydroxypropyl-β-cyclodextrin solution and sonicated for 60 minutes in the dark. This solution was then diluted in 5% glucose to yield a final compound concentration of 0.5 mg/ml, and further sonicated for 60 minutes in the dark to assure that the compound was completely dissolved.
When the growth of tumors in the control group reached the exponential phase and the size of the tumor was palpable (usually 20 to 30 days after tumor implantation), the experiments were terminated. Tumors in each mouse were excised and weighed using an analytical balance. Total tumor weight in each group from five mice was calculated. Per cent tumor inhibition between the treated group and the control group was then calculated for each group.

[10] = CV-1, Table III, normal monkey kidney epithelial cells, colony count after 7 to 10 days
[11] = human colon carcinoma, 24 hours treatment, colony count after 7 to 10 days

**Q.** CCN1C(=CC=C(Cl)C=Cc2sc3ccc4ccccc4c3[n+]2CC)Sc2ccc3ccccc3c21 [H, reference compound] was tested. Which IC50 [1, 10] did it give?
**A.** Its IC50 is 0.1 mg/L.

**Q.** What about the “Selectivity (ratio of IC50 for CV-1 and IC50 for CX-1)” value [2] of the same molecule?
**A.** The value was 2.5.

**Q.** What about the IC50 [2, 11] of the same molecule?
**A.** The IC50 was 0.04 mg/L.

**Q.** And the “toxicity to normal nude mice” value [3]?
**A.** The value was “highly toxic to normal nude mice”.

**Q.** What does the source list for CCN1C(=CC(C)=Cc2sc3c4ccccc4ccc3[n+]2CC)Sc2c1ccc1ccccc21 [G, reference compound]?
**A.** IC50 [1, 10]: 0.1 mg/L; Selectivity (ratio of IC50 for CV-1 and IC50 for CX-1) [2]: 5; IC50 [2, 11]: 0.02 mg/L; toxicity to normal nude mice [3]: highly toxic to normal nude mice

**Q.** How did the IC50 ([1]; CV-1, 24 h, Table IV) turn out when CCn1c(=CC2=[N+](CC)CCS2)sc(=C2Sc3ccccc3N2C)c1=O [Compound 16] was run?
**A.** Its IC50 is 20 mg/L.

**Q.** And the IC50 ([1]; CV-1, 24 h, Table V)?
**A.** Its IC50 is 20 mg/L.

**Q.** And the IC50 ([1]; CV-1, 24 h, Table VI)?
**A.** The IC50 was 20 mg/L.

**Q.** And the IC50 ([1]; CV-1, 24 h, Table VII)?
**A.** The IC50 was 20 mg/L.

**Q.** What about the IC50 [1, 10] of the same molecule?
**A.** Its IC50 is 20 mg/L.

**Q.** What about the “Selectivity (ratio of IC50 for CV-1 and IC50 for CX-1)” value [2] of the same molecule?
**A.** Its value is 667.

**Q.** What about the “CX-1 (IC50)” value ([2]; Table III, human colon carcinoma, 24 hours treatment, colony count after 7 to 10 days) of the same molecule?
**A.** The value was 0.03 mg/L.

**Q.** What about the Selectivity ([4]; CV-1/EJ) of the same molecule?
**A.** The Selectivity was 100.

**Q.** What about the IC50 ([4]; Homo sapiens, EJ, 24 h, Table IV, human bladder carcinoma, 24 hours treatment) of the same molecule?
**A.** The IC50 was 0.2 mg/L.

**Q.** And the Selectivity ([5]; CV-1/LOX)?
**A.** Its Selectivity is 222.

**Q.** And the “LOX(IC50)” value ([5]; Table V, human melanoma, 24 hours treatment)?
**A.** Its value is 0.09 mg/L.

**Q.** What about the Selectivity ([6]; CV-1/MCF-7) of the same molecule?
**A.** Its Selectivity is 333.

**Q.** What about the “MCF-7(IC50)” value ([6]; Table VI, human breast carcinoma, 24 hours treatment) of the same molecule?
**A.** The value was 0.06 mg/L.

**Q.** And the Selectivity ([7]; CV-1/CRL-1420)?
**A.** The Selectivity was 285.

**Q.** What about the IC50 ([7]; Homo sapiens, 24 h, Table VII, human pancreatic carcinoma, 24 hours treatment) of the same molecule?
**A.** Its IC50 is 0.07 mg/L.

**Q.** What about the response vs control in vivo at 5 mg/kg [8] of the same molecule?
**A.** The response vs control in vivo at 5 mg/kg was 147%.

**Q.** What about the inhibition in vivo at 5 mg/kg [9] of the same molecule?
**A.** The inhibition in vivo at 5 mg/kg was 82.9%.

**Q.** For CCN1/C(=C/C=C/c2sc3ccccc3[n+]2CC)Sc2ccccc21 [A, reference compound], which IC50 [1, 10] is on record?
**A.** Its IC50 is 0.6 mg/L.

**Q.** What about the “toxicity to normal nude mice” value [3] of the same molecule?
**A.** Its value is “highly toxic to normal nude mice”.

**Q.** With CCN1C(=CC=CC=Cc2sc3ccccc3[n+]2CC)Oc2ccccc21 [F, reference compound] as the molecule, how does the IC50 [1, 10] read?
**A.** Its IC50 is 1.5 mg/L.

**Q.** What about the “Selectivity (ratio of IC50 for CV-1 and IC50 for CX-1)” value [2] of the same molecule?
**A.** The value was 50.

**Q.** And the IC50 [2, 11]?
**A.** The IC50 was 0.03 mg/L.

**Q.** And the “toxicity to normal nude mice” value [3]?
**A.** The value was “less toxic to normal nude mice”.

**Q.** With CCN1C(=CC=Cc2sc3c4ccccc4ccc3[n+]2CC)Sc2c1ccc1ccccc21 [B, reference compound] as the molecule, how does the IC50 [1, 10] read?
**A.** The IC50 was less than 0.1 mg/L.

**Q.** And the “Selectivity (ratio of IC50 for CV-1 and IC50 for CX-1)” value [2]?
**A.** The value was less than 2.

**Q.** What about the IC50 [2, 11] of the same molecule?
**A.** The IC50 was 0.05 mg/L.

**Q.** And the “toxicity to normal nude mice” value [3]?
**A.** The value was “highly toxic to normal nude mice”.

**Q.** Which IC50 [1, 10] does the source give for CCCN1C(=CC=CC=Cc2oc3ccccc3[n+]2CCC)Oc2ccccc21 [E, reference compound] here?
**A.** The IC50 was 6 mg/L.

**Q.** And the “Selectivity (ratio of IC50 for CV-1 and IC50 for CX-1)” value [2]?
**A.** The value was 12.

**Q.** What about the IC50 [2, 11] of the same molecule?
**A.** Its IC50 is 0.5 mg/L.

**Q.** And the “toxicity to normal nude mice” value [3]?
**A.** Its value is “less toxic to normal nude mice”.
